Data reported in a melting point compilation (Tetko et al.; mined from patent text by program, amines drawn as free bases though some values may be those of a salt).

| SMILES | melting point [°C] |
| --- | --- |
| COc1cc(OCCCN2CCOCC2)c(C=CC(=O)c2ccc(C(N)=O)cc2)cc1-c1cccs1 | 81 to 83 |
| O=C(O)C/C(C(=O)O)=C(\CCCCCCCCCCCCCCCCOS(=O)(=O)O)C(=O)O | 63 to 65 |
| COc1cccc2c1CC(C(=O)NCCOc1ccc(C(=O)O)cc1)N2S(=O)(=O)c1ccc(-c2ccc(F)cc2F)cc1 (configuration not stated) | 206 |
| Cc1ncc2n1-c1ccc(Cl)cc1C(c1ccccc1F)N=C2 (configuration not stated) | 180 to 181 |
| CC(Cc1c[nH]c2ccccc12)(NC(=O)OC1CCCCC1Cl)C(=O)NCCc1ccccc1 (configuration not stated) | 69 to 78 |
| Cc1ccc(N2C(=O)C(O)=C(C(=O)c3ccc(OC(F)(F)F)cc3)C2c2ccc(C(C)C)cc2)nn1 (configuration not stated) | 269 |
| CCCCCCCCOc1ccc(C(=O)c2ccccc2)c(O)c1Cc1cc(C)cc(-n2nc3ccccc3n2)c1O | 124 to 126 |
| Nc1c(C(=O)c2ccc(Cl)cc2)oc2ccccc12 | 202 to 204 |
| OC1CCCC(c2ccccc2)O1 (configuration not stated) | 64.5 to 71 |
| COc1ccc(-c2[nH]cnc2-c2cc(OC)c(N)c(OC)c2)cc1F | 101 to 103 |
| CCC(=O)Nc1ccnn1-c1ncc(Cl)cc1Cl | 116 to 124 |
| CC1CN2CC(=O)N(C)c3ccc(Cl)cc3C2(c2ccccc2)O1 (configuration not stated) | 142 to 143 |
| CC1=CC(c2cccc(Cl)c2)C=C(CN2C(=O)c3ccccc3C2=O)N1 (configuration not stated) | 128 to 130 |
| COc1ccc2c(c1)Sc1cc(N)ccc1N2C | 142 to 143 |
| CC(=O)OC1C(OC(=O)c2ccccc2)C=C(C)C(=O)CC1(C)C (configuration not stated) | 94 to 95 |
| c1ccc(CNc2cc(N3CCCC3)nc(N3CCCC3)n2)cc1 | 70 to 72 |
| COC(=O)c1ccc2c(c1)S(=O)(=O)NCN2C1CC1 | 178 to 180 |
| OCc1cc(CO)n(C(c2ccccc2)(c2ccccc2)c2ccccc2)n1 | 180 to 182 |
| CC(C)c1ccc(C(=O)C2CCNCC2)cc1 | 55 to 57 |
| COc1ccc(-c2nnc(C(=O)N3CC(Oc4ccc(CN5CCC(C)(CO)CC5)cc4)C3)o2)cc1 | 102 |
| O=C(Nc1cc2ccccc2oc1=O)c1ccccc1NCc1ccncc1 | 195 to 197 |
| c1ccc(COC2CCN(Cc3cc4ccccc4[nH]3)CC2)cc1 | 103 to 105 |
| CC(C)CC(=O)NC(=O)c1nnn(Cc2ccccc2)c1N | 138 to 150 |
| CON1C=C2C=C(SC)N=C(Cl)N2N1 | 243 to 244 |
| CCn1ncc2c3onc(-c4ccc(OC)cc4)c3cnc21 | 156 to 157 |

| SMILES | melting point [°C] |
| --- | --- |
| Cn1c(Cl)cnc1CN1C(=O)C2(COc3cc4c(cc32)OCCO4)c2ccccc21 (configuration not stated) | 91 to 95 |
| CN(C(=S)Nc1ccc(Cl)cc1Cl)c1cccc(C(=CCCCC(=O)O)c2cccnc2)c1 | 124 to 126 |
| O=C(Cc1ccc(OCc2ccccc2C(=O)O)cc1)NC1(C(=O)O)Cc2ccc(-c3ccc(Cl)cc3)cc2C1 (configuration not stated) | 209 to 211 |
| COc1ccc(CN(C(=O)Nc2ccc(C(=O)O)cc2)c2ccc3c(c2)C(C)(C)CCC3(C)C)cc1 | 117 to 121 |
| O=C(O)CCSSc1ccc([N+](=O)[O-])cc1 | 98 to 100 |
| CCOC(=O)CCC=Cc1ccc2ccccc2c1O | 63 to 64 |
| N#Cc1cnn(-c2ccc(OC(F)(F)F)cc2Cl)c1Br | 83 |
| Cc1nc(N)c(O)c(=O)[nH]1 | > 300 |
| CN(C)Cc1ccc([C@H]2CC[C@H](O)CC2)cc1 | 63 to 65 |
| CN(C)C=C(C#N)C(=O)Nc1ccccc1 | 162 to 164 |
| C=CCNC(=O)NS(=O)(=O)c1ccccc1OC(Cl)=CCl | 187 to 188 |
| Cc1c(C)c(N2CCN(c3ccn(C)n3)CC2)c(C)c2c1OC(C)(C)C2 | 147 to 149 |
| O=C(O)c1cc(OCc2ccccc2)nn1-c1ccccc1 | 163 to 164 |
| O=C(Nc1ccc(C(=O)N2CCCc3ccccc32)cc1)c1ccc(CO)cc1 | 224 to 226 |
| CC(=O)Oc1cc(/C=C/c2ccccc2)cc(OC(C)=O)c1 | 90 to 90.5 |
| O=C(OCCOc1ccccc1)c1cccc(NC(=O)C(CS)Cc2ccccc2)c1 (configuration not stated) | 98 to 100 |
| CCc1ccc(NC(=N)c2ccc(SC)cc2)cc1 | 156 to 158 |
| CN(C)c1ccc(C(=O)N2CCC(C(c3ccccc3)c3ccccc3)CC2)cc1 | 177 to 179 |
| N#Cc1ccc(NC(=S)NCc2ccncc2)cc1 | 169 |
| O=C(c1ccc(F)cc1)C1CCN(C2Sc3ccccc3NC2=O)CC1 (configuration not stated) | 218 |
| COCc1c(S(C)(=O)=O)ccc(C(=O)C2C(=O)CCCC2=O)c1C | 192 to 198 |
| COc1ccc(CN(Cc2ccc(OC)cc2)c2nccc(-c3ccc(-c4ccc(N(c5ccccc5)c5ccccc5)cc4)cc3)n2)cc1 | 95 to 97 |
| CCOC(=O)C1=C(C)NC(C)=C(C(=O)OCC)C1c1ccccc1/C=C(\C)C(=O)OCC | 105 to 106 |
| CC1(O)c2ccccc2COc2ccc(C(=O)O)cc21 (configuration not stated) | 258 |
| CCc1c(-c2cc(C)c(OC)c(C)c2)[nH]c2ccccc12 | 126 to 127 |

| SMILES | melting point [°C] |
| --- | --- |
| COc1ccc(C(=O)Nc2ccccc2)cc1NS(=O)(=O)c1cccs1 | 180 to 183 |
| CN1C(=O)C(NC(=O)Nc2ccccc2)N=C(c2ccccc2)c2ccccc21 (configuration not stated) | 260 to 261 |
| CC(=O)NN=C(C)c1ccc(C)nc1 | 178 |
| CN(C)C=Nc1c(S(=O)C(F)(F)F)c(-c2ncon2)nn1-c1c(Cl)cc(C(F)(F)F)cc1Cl (configuration not stated) | 140 |
| CCCCCCCCCCCCCCCCCCOc1cc(OC(=O)C(c2ccccc2)c2ccccc2)cc(C(=O)O)c1 | 82 to 86 |
| CC(C)(C)c1cc(C2N[C@H](C(=O)O)CS2)cc(C(C)(C)C)c1O (some centres not stated) | 163 to 165 |
| CNC(=S)NCc1cc(-c2ccccc2)no1 | 118 |
| CC(=O)OC1C(COC(=O)c2ccccc2)OC(n2ccc(=O)[nH]c2=O)C1F (configuration not stated) | 179 to 180 |
| CC(C)CCCC(C)C1CCC2C3CC=C4CC(NCCCNC(=O)CCCCCNc5ccc([N+](=O)[O-])cc5[N+](=O)[O-])CCC4(C)C3CCC12C (configuration not stated) | 165 to 166 |
| Cn1c(=O)c(-c2ccc(Cl)cc2Cl)cc2c3cc(-c4nnc(N)s4)ccc3n(C)c21 | 321 to 323 |
| CCNC1([C@@H]2CCN(c3ccc4c(=O)c(C(=O)O)cn([C@@H]5C[C@@H]5F)c4c3C)C2)CC1 | 191 to 194 |
| O=c1ccn(-c2cc3[nH]c(=O)c(=O)[nH]c3cc2[N+](=O)[O-])cc1 | > 300 |
| O=[N+]([O-])c1cnc2cccnc2c1NCc1ccccc1 | 127 to 129 |
| COC(=O)c1ccc(CCC2CNc3nc(NC(=O)C(C)(C)C)nc(O)c3C2)[nH]1 (configuration not stated) | 246 to 248 |
| CC1COc2c(F)c(Cl)cc3c(=O)c(C(=O)O)cn1c23 (configuration not stated) | > 300 |
| CC(C(=O)O)c1ccc(C=C2CCCC2=O)cc1 (configuration not stated) | 106 to 107 |
| COc1ccc(-c2c3c(cc4ccc(OC)cc24)C(=O)NC3=O)cc1 | 290 to 292 |
| COCCC(=O)N[C@H]1CC[C@H](CCN2CCN(c3nc(C)cc4c3CCO4)CC2)CC1 | 178 |
| CCOC(=O)C(SC)=C(O)C1C(C(=O)O)C1(C)C (configuration not stated) | 114 |
| N#Cc1cn(-c2c(Cl)cc(C(F)(F)F)cc2Cl)nc1C(F)(F)F | 116 to 118 |
| Cc1nc2c(s1)-c1nc(NC(=O)c3ccccc3)ncc1CC2 | 229 to 231 |
| CCCCNC(=O)Cc1ccc2c(c1)c(Cc1ccc(C(=O)O)cc1OC)cn2C | 92 to 95 |
| CCOC(=O)C=Nc1cc(Cl)ccc1C(=O)O | 166 to 167 |
| NS(=O)(=O)c1ccccc1OC(F)(F)C(F)Cl (configuration not stated) | 113 to 116 |
| CCOC(=O)N1CCC(NC2(c3ccccc3Cl)C(=O)Nc3ccc(Cl)cc32)CC1 (configuration not stated) | 204 |

| SMILES | melting point [°C] |
| --- | --- |
| Cc1cc(CCCOc2c(C)cc(-c3noc(C(F)(F)F)n3)cc2C)on1 | 61 to 62 |
| CCOc1cc2cc(C3=NNC(=O)CC3C)sc2cc1OCC (configuration not stated) | 170 to 171 |
| O=P(O)(c1ccccc1)c1ccc(S(=O)(=O)c2ccccc2)cc1 | 220 to 224 |
| CCc1cccc(C(O)CC)c1NC(=O)CC1c2ccccc2Oc2ccccc21 (configuration not stated) | 167 to 168 |
| O=C1C(=CN2CCOCC2)c2ccccc2N1c1cccc(Cl)c1 | 130 to 132 |
| O=CCCc1cn(-c2cccnc2)c2ccccc12 | 44 to 45 |
| CCOC(=O)c1ccc(-c2ccc(-c3ccc(C(F)(F)F)cc3)n2C)cc1 | 150 to 151 |
| Cc1cc2c(c(C)c1N)C(c1ccccc1)CO2 (configuration not stated) | 127 to 128 |
| COC(=O)C1c2ccc(OC)cc2SC1c1ccc(OC)cc1 (configuration not stated) | 98.3 to 99.8 |
| O=Cc1c(F)cccc1Sc1ccc(F)cc1 | 94 to 97 |
| CCc1cc(Nc2cc(Cl)c(C(F)(F)F)cc2[N+](=O)[O-])c(OC)cc1OC | 161 to 162 |
| CCSC1(SC)CCC2C3CCC4=CC(=O)C=CC4(C)C3(F)C(OC(C)=O)CC21C (configuration not stated) | 140 to 142 |
| Cc1cccc(-c2nc3cccnn3c2-c2ccnc(Nc3ccccc3C)c2)c1 | 208 to 209 |
| COC(=O)C(Cc1ccccc1)Oc1ccc2cc(CN(C)C(=O)c3oc4ccccc4c3CCc3ccccc3)ccc2c1Br (configuration not stated) | 29 to 32 |
| COc1ccc2nc(-c3cc(C)c(OCCO)c(C)c3)n(-c3ccc(Br)cc3)c(=O)c2c1 | 160 to 162 |
| CCOC(=O)Cc1ccc(OCc2ccc3oc([N+](=O)[O-])c(-c4ccccc4)c3c2)cc1 | 74 to 75 |
| O=C(O)CCC(=O)CCC(=O)Nc1ccc(Cc2ccc(NC(=O)CCC(=O)CCC(=O)O)cc2)cc1 | 158 to 160 |
| O=c1ccc2c(F)cc(F)cc2[nH]1 | 292 to 318 |
| CC(C)N(Sc1nc2ccccc2s1)C(C)(C)C | 68 to 70 |
| CCCCCn1c2c(c3ccc(OC)cc31)CN(S(=O)(=O)c1cccc3c(N(C)C)cccc13)CC2 | 71 to 72 |
| CCN(CC)CCC/C=C/c1cc2ncc(C#N)c(Nc3ccc(Sc4nccn4C)c(Cl)c3)c2cc1OC | 229 to 233 |
| COc1ccccc1C1Cc2c(ccn2C)C2C(=O)NC(=O)C12 (configuration not stated) | 208 to 212 |
